# Data published in US12472171B2, “Methods for treating hypercholesterolemia” (BIOGEN MA INC., priority 2020, dated 2025).
# Tests used:
# healthy volunteers [1] = experiment: 28-day once-daily dosing study in healthy volunteers (Study 1), circulating total cholesterol and oxysterols; format: in vivo, human
# Procedure: Forty-two healthy volunteers received Compound 1 QD for 28 days (or before early withdrawal), with 6 individual participants per cohort receiving 1 mg (Cohort 1), 3 mg (Cohort 2), 10 mg (Cohort 3), 30 mg (Cohort 4), 60 mg loading dose with 10 mg maintenance dosing (Cohort 5) Compound 1, 60 mg (Cohort 6), or 90 mg loading dose on Day 1 and Day 2 with 30 mg maintenance dosing (Cohort 7). There were also 14 participants who received placebo in the study; 1 participant in Cohort 4 was misdosed on Day 19 and appeared to have received at least one 30 mg dose of Compound 1. The following protocol deviations were reported for participants in Cohorts 1 through 5: they received predose water ad lib (not restricted for 1 hour before and 1 hour after dose) and a meal administered 30 minutes postdose (not 4 hours postdose). A total of 49 participants completed treatment, including 37 participants who received active treatment.
# Participants received the first dose of study treatment (Compound 1 or placebo) on Day 1 and continued to receive once-daily study treatment through Day 28. Participants remained in the clinic throughout the dosing period. Participants were discharged on Day 29 after completing all assessments.
# Blood was periodically withdrawn from each volunteer and immediately stored at −80° C. For measuring metabolite concentrations in human serum, the samples were centrifuged and the resulting supernatant was used for further analysis.
# Free oxysterols were extracted from the samples with methanol using the Biocrates Kit filter plate. The plate was loaded with an internal standard mixture beforehand. The metabolite concentrations were determined by UHPLC-MS/MS with multiple reaction monitoring (MRM) in a positive mode using a SCIEX API 5500 QTRAP® (AB SCIEX, Darmstadt, German) instrument with electrospray ionization (ESI). Data were quantitated using appropriate mass spectrometry software and imported in Biocrates Met/DQ™ software for further analysis.
# healthy volunteers [2] = experiment: Population PK/PD model (Monolix) of circulating cholesterol versus Compound 1 plasma concentration, from three phase I studies; parameters: species or system human
# Procedure: FIG. 2 is a bar graph showing predicted steady-state concentrations of circulating cholesterol levels during treatment with Compound 1 for subject administered placebo, 1 mg, 3 mg, 10 mg, 30 mg or 60 mg per day of Compound 1 at pharmacodynamic steady-state. The predicted concentrations are from simulations based on data from three phase I trials of Compound 1.
# Based on these observations, a population PK/PD model was developed using Monolix to describe circulating cholesterol concentration as a function of plasma concentration of Compound 1 and exposure. The model was developed from cholesterol data from the study described above (Study 1) as well as two additional clinical studies (Study 2 and Study 3) in healthy volunteers. In Study 2, thirty healthy volunteers received a single oral dose of Compound 1 with 6 individual participants per cohort receiving 3 mg (Cohort 1), 10 mg (Cohort 2), 30 mg (Cohort 3), 60 mg (Cohort 4), 100 mg (Cohort 5). There were also 9 participants who received placebo in the study. In Study 3, 8 healthy adult volunteers received a single dose of 30 mg of Compound 1.
# rat OPCs = experiment: Sterol levels (Metabolon HD4) in rat OPC cultures treated with Compound 1; format: cell-based; details: rat OPC culture
# Procedure: Enriched populations of oligodendrocytes from female Sprague Dawley postnatal day 2 (P2) rats were grown in culture. Briefly, the forebrain was dissected and placed in Hank's buffered salt solution (HBSS) (Life technologies). The tissue was cut into 1 mm fragments and incubated at 37° C. for 15 min in 0.01% trypsin and 10 μg/ml DNase. Dissociated cells were plated on poly-D-lysine (PDL)-coated T75 tissue culture flasks and grown at 37° C. for 10 days in Dulbecco's Modified Eagle Medium (DMEM) with 20% fetal calf serum (Life technologies). Oligodendrocyte precursors (A2B5+) were collected by shaking the flask overnight at 200 rpm at 37° C., resulting in a 95% pure population. Cultures were maintained in a defined growth medium (high glucose DMEM, 0.1% BSA, 50 ug/ml Apo-transferrin, 5 ug/ml insulin, 30 nM sodium selenite, 10 nM biotin and hydrocortisone) with 10 ng/ml fibroblast growth factor/platelet-derived growth factor (FGF/PDGF) (Peprotech) for 2-3 days. For assessing the ability of Compound 1 to promote the differentiation of rat A2B5+ progenitor cells into mature myelin basic protein positive (MBP+) myelinating oligodendrocytes, A2B5+ cells were plated into 10-cm PDL coated culture plates in FGF/PDGF free growth medium supplemented with 10 ng/ml CNTF and 15 nM T3 and were immediately treated for with Compound 1. The cell pellets were collected at 24 hours and 72 hours in culture and stored at −80° C. The cell pellets were subsequently shipped to Metabolon (Morrisville, NC, USA) and maintained at −80° C. during shipping and storage until processed. The cell pellet samples were extracted with methanol under vigorous shaking for 2 min (Glen Mills GenoGrinder 2000) to precipitate protein and dissociate small molecules bound to protein or trapped in the precipitated protein matrix, followed by centrifugation to recover chemically diverse metabolites. The resulting extract were next aliquot and analyzed on Metabolon's HD4 platform. Several types of quality control samples, including recovery standards added prior to extraction, technical replicates from a pool combined from each experimental sample, process and solvent blanks, and spiked a cocktail of QC standards, were applied during sample preparation and analysis for quality assessment and filtering failed samples.
structure (smiles),measurement,setting,value
"CC[C@H]1CC[C@@H](Oc2ccc3cc(CN4CCC(C(=O)O)CC4)ccc3c2)CC1 [Compound 1, 1-((6-(((1s,4s)-4-ethylcyclohexyl)oxy)naphthalen-2-yl)methyl)piperidine-4-carboxylic acid]",accumulation of 7-dehydrocholesterol (7-DHC),healthy volunteers [1]; healthy human volunteers,causes accumulation of 7-dehydrocholesterol (7-DHC)
same,average decrease in total cholesterol,"healthy volunteers [1]; healthy volunteers, 60 mg dose, Study 1",approximately 20%
same,reduction in total circulating cholesterol,"healthy volunteers [1]; healthy volunteers, QD for 28 days, FIG. 1","gradual, time- and dose-dependent reduction in total circulating cholesterol"
same,model-predicted decrease of circulating cholesterol,"healthy volunteers [2]; 60 mg QD, steady state",approximately 35%
same,predicted time for circulating cholesterol to return to baseline after discontinuation,healthy volunteers [2]; after discontinuation of treatment,≤ 30 days
same,steady-state concentration of Compound 1,healthy volunteers [2]; daily dose of 60 mg,about 3 μg/mL
same,time of increase to steady-state concentrations of Compound 1 in plasma,"healthy volunteers [2]; daily dosing, cholesterol reduction predicted over the same time frame",approximately 15 days
same,EC50 for reduction in circulating cholesterol concentration,"healthy volunteers [2]; plasma concentration of Compound 1, population PK/PD model",about 3 μg/mL
same,circulating cholesterol concentration in the model by daily dose,healthy volunteers [2]; population PK/PD model,reduced at all daily doses higher than 10 mg
same,7-DHC versus vehicle control,rat OPCs; 24 hours,8.3 folds
same,cholesterol versus vehicle control,rat OPCs; 24 hours,0.64 folds
same,desmosterol versus vehicle control,rat OPCs; 24 hours,0.44 folds
same,7-DHC versus vehicle control,rat OPCs; 72 hours,12.86 folds
same,cholesterol versus vehicle control,rat OPCs; 72 hours,insignificant change
same,desmosterol versus vehicle control,rat OPCs; 72 hours,0.4 folds
